Test results from patent US11293023B2, “Tunable endogenous protein degradation” (Dana-Farber Cancer Institute, Inc., priority 2015, dated 2022).

What was measured:
FKBP* fused to Nluc = biological target: T1, FKBP* fused to Nluc (Homo sapiens, UniProt P62942+Q96SW2, F37V); assay: Nluc/Fluc luciferase signal ratio assay of FKBP* degradation in 293FT cells; format: cell-based; conditions: wild type or CRBN−/− 293FT cells, indicated concentrations, 4 hours
T1 construct: expressed in transfected cells; host or cells: 293FT cells (wild type or CRBN-/-)
Description: FIG. 5A and FIG. 5B are graphs measuring the activity of a panel of dFKBP heterobifunctional compounds in cells expressing FKBP* fused to Nluc. Degradation of FKBP* is measured as a signal ration (Nluc/Fluc) between NANOluc and firefly luciferase from the same multicistronic transcript in wild type (FIG. 7A) or CRBN−/− ([…]) 293FT cells treated with indicated concentrations of dFKBPs for 4 hours. A decrease in the signal ratio indicates FKBP* (Nluc) degradation.
In an effort to identify potent and selective dFKPB heterobifunctional compounds, high throughput measurements of targeted FKBP* degradation were measured by surrogate levels of luciferase. Here, FKBP* is exogenously expressed as a multicistronic transcript with two types of luciferase: nano luciferase (NLuc) and firefly luciferase (FLuc) that allow for cell normalized quantification of FKBP* protein levels. Degradation of FKBP* is measured as a signal ration (Nluc/Fluc) in wild type (FIG. 4A) or CRBN−/− (FIG. 4B) 293FT cells treated with indicated concentrations of dFKBPs for 4 hours.

[1] = system: NIH3T3 cells expressing FKBP*-KRASG12V; assay: Phase contrast imaging of NIH3T3 cells expressing dTAG-KRAS; format: cell-based; conditions: NIH3T3 overexpressing dTAG-KRAS, 24 hours
Description: FIG. 18A, FIG. 18B, FIG. 18C, and FIG. 18D are panels of phase contrast images of control NIH3T3 cells or NIH3T3 expressing FKBP* fused to the N-terminus of KRASG12V treated with DMSO of dFKBP13 for 24 hours.

T1 sequence (P62942 2-108 F37V limits assumed): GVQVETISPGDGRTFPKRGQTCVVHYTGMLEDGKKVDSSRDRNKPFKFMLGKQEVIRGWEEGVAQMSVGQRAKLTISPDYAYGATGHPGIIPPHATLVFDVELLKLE
T1 sequence (Q96SW2 whole entry, the tested form may be a part): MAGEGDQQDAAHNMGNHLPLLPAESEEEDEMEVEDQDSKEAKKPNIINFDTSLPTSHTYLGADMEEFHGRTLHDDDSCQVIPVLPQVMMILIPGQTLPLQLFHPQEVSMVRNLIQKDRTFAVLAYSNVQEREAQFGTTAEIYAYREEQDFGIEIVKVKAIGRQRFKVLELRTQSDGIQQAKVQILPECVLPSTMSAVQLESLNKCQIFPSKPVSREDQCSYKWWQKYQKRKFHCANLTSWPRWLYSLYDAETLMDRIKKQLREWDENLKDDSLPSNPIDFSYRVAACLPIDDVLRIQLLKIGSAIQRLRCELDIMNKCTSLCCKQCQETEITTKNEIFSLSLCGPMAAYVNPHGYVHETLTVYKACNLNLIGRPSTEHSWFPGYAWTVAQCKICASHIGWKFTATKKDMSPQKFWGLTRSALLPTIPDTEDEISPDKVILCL
T1 sequence (Q16531 whole entry partner, the tested form may be a part): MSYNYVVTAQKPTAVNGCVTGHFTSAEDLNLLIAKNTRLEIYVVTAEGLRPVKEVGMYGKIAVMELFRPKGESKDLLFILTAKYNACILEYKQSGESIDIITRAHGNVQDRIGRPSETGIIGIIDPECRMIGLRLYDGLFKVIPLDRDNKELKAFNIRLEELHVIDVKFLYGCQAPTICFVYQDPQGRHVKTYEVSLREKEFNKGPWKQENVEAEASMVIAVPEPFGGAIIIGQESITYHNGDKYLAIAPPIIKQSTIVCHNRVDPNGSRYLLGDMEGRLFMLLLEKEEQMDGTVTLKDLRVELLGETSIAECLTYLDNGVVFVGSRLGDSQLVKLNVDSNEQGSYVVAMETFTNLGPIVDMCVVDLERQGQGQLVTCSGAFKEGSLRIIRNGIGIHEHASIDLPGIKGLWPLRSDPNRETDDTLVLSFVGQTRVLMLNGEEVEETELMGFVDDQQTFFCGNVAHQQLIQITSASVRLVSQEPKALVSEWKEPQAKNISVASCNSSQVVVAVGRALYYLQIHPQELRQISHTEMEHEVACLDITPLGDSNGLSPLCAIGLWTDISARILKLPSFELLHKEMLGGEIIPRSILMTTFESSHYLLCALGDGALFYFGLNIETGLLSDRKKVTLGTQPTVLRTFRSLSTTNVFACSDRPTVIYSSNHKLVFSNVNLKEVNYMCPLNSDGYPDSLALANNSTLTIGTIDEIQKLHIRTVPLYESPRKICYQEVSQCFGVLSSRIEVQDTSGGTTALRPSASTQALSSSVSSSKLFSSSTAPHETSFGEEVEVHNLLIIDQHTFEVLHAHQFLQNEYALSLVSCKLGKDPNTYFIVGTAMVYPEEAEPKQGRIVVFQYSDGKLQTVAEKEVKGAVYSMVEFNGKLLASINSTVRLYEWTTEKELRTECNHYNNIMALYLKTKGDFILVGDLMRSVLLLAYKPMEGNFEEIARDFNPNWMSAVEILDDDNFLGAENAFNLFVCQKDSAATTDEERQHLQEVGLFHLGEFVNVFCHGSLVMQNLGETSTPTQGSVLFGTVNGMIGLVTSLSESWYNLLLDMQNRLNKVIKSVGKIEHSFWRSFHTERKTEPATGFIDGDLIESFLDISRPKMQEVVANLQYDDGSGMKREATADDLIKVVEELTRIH

Structure (SMILES)	FKBP* degradation as signal ratio (Nluc/Fluc) (FKBP* fused to Nluc)	cell morphology [1]
CC[C@H](C(=O)N1CCCC[C@H]1C(=O)O[C@H](CCc1ccc(OC)c(OC)c1)c1cccc(OCC(=O)NCCCOCCOCCOCCCNC(=O)COc2cccc3c2C(=O)N(C2CCC(=O)NC2=O)C3=O)c1)c1cc(OC)c(OC)c(OC)c1 (some centres unmarked) [dFKBP7]	effectively degrade FKBP* in a cereblon dependent manner	–
CC[C@H](C(=O)N1CCCC[C@H]1C(=O)O[C@H](CCc1ccc(OC)c(OC)c1)c1cccc(OCC(=O)NCCCCCCOc2cccc3c2C(=O)N(C2CCC(=O)NC2=O)C3=O)c1)c1cc(OC)c(OC)c(OC)c1 (some centres unmarked) [dFKBP13]	–	morphologically revert back to the wild type (DMSO control) state
